# Reference: publication PMC4907692, “Engineering vanilloid-sensitivity into the rat TRPV2 channel” (eLife, 2016)
# Key:
# [1] = target: T1, N-terminus His-tagged TRPV1 (without GFP) (Rattus norvegicus, UniProt O35433); assay: 3H-RTx binding to intact S. cerevisiae cells expressing His-tagged TRPV1; conditions: 37°C, Figure 1F
# T1 construct: expressed in transfected cells; host or cells: Saccharomyces cerevisiae (intact cells)
# Method: (§1) To evaluate whether these constructs were competent to bind vanilloids, we initially measured the binding of [^3H]-RTx ([Szallasi and Blumberg, 1999]; [Szallasi et al., 1999]) to intact yeast cells expressing each of the constructs.
# (§2) S. cerevisiae cells overexpressing TRPV1 constructs to be used in ligand binding assays on intact cells (Figure 1E,F) were grown as for small scale expression trials. 24 hr after protein induction cells were spun down at 4000g, the supernatant was removed and the pellet resuspended in 1x PBS, normalizing OD600 to 75 for each sample, and aliquoted for storage at -80°C. ^3H-RTx binding assays on cells were performed at 37°C as previously described ([Feng et al., 2015]), but where non-specific binding of RTx was measured using cells expressing GFP alone. The binding of RTx to TRPV1 and TRPV2 in membranes (e.g. Figure 2A,B and 5C) was performed at 37°C unless otherwise stated using membranes prepared from large scale protein preparations of S. cerevisiae containing rat TRPV1 and TRPV2 with a 1D4 tag expressed using a constitutive promoter as in [Moiseenkova-Bell et al., 2008]. Data for binding of RTx to membranes was corrected for non-specific binding, determined using either excess non-radioactive ligand or heat inactivation of the protein, as previously described ([Feng et al., 2015]). […]
# [2] = target: T2, TRPV1 Y511A (dual GFP- and His-tagged) (Rattus norvegicus, UniProt O35433, Y511A); assay: 3H-RTx binding to intact S. cerevisiae cells expressing TRPV1 Y511A; conditions: 37°C, Figure 1F
# T2 construct: expressed in transfected cells; host or cells: Saccharomyces cerevisiae (intact cells)
# T2 sequence (O35433 whole entry Y511A): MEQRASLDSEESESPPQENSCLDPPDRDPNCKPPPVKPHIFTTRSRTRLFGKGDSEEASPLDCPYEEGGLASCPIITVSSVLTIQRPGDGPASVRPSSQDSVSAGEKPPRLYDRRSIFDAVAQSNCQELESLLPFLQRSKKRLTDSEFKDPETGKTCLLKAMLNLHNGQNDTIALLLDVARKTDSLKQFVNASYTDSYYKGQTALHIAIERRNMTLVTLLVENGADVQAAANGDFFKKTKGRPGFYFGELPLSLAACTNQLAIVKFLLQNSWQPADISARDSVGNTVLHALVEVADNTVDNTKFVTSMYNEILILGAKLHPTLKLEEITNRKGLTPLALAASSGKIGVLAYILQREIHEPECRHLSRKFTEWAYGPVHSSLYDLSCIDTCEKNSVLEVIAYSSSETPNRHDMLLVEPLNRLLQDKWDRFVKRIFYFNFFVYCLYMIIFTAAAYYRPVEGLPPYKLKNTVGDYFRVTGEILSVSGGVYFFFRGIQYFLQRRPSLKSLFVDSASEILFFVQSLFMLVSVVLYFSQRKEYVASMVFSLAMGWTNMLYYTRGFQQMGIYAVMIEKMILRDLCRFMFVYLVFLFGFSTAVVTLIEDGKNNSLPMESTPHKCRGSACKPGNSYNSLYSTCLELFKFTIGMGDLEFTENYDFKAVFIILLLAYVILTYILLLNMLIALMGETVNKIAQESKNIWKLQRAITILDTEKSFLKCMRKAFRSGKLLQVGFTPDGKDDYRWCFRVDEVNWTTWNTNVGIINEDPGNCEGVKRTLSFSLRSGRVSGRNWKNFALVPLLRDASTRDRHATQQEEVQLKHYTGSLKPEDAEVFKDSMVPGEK
# Method: as §1, §2
# [3] = target: T3, WT TRPV1 (Rattus norvegicus, UniProt O35433); assay: Two-electrode voltage-clamp in Xenopus oocytes, WT TRPV1; assay type: cell-based; conditions: 100 nM RTx, +60 and -60 mV
# T3 construct: expressed in transfected cells; host or cells: Xenopus oocytes (cRNA injection, pGEM-HE)
# T3 sequence (O35433 whole entry): as the sequence (O35433 whole entry Y511A) above, with A511Y counted along it
# From the text: (§3) To further investigate the putative vanilloid binding pocket in TRPV1, we inspected the cryo-EM structure of TRPV1, looking for residues that are located nearby to the putative RTx density (Figure 1B; regions/residues highlighted in yellow) and that differ between TRPV1 and TRPV2 channels (Figure 3—figure supplement 1; regions highlighted in magenta). […] To quantify the contribution of each of these residues to TRPV1 channel activation by RTx under our experimental conditions, we mutated each to the corresponding residue in TRPV2. We then expressed each construct in oocytes and used the two electrode voltage-clamp technique to study activation by RTx and by the non-specific TRPV channel activator 2-APB. We recorded time courses for channel activation by each agonist while stepping the membrane potential from −60 to +60 mV every 3 s from a holding potential of 0 mV using an external recording solution containing 100 mM KCl (internal K^+ concentration in a healthy oocyte is 100 mM) (Figure 3A, left). We also recorded current-voltage (I-V) relations by stepping over a wider range of voltages in the absence and presence of activators, or in the presence of ruthenium red (RR), a non-specific inhibitor of TRP channels (Figure 3A, right).
# The WT rat TRPV1 and TRPV2 channels in the pcDNA3.1 vector were kindly provided by Dr. David Julius (UCSF) ([Caterina et al., 1997]; [Caterina et al., 1999]) and subcloned into the pGEM-HE vector ([Liman et al., 1992]). Mutations were introduced into rTRPV1 using a two-step PCR mutagenesis technique and the resulting constructs were verified by sequencing. All channel constructs were expressed in Xenopus oocytes and studied following 1–4 days incubation after cRNA injection (incubated at 17°C in 96 mM NaCl, 2 mM KCl, 5 mM HEPES, 1 mM MgCl2 and 1.8 mM CaCl2, 50 μg/ml gentamycin, pH 7.6 with NaOH) using the two-electrode voltage-clamp recording technique (OC-725C, Warner Instruments, Hamden, CT) with a 150 μl recording chamber. Data were filtered at 1–3 kHz and digitized at 20 kHz using pClamp software (Molecular Devices, Sunnyvale, CA). […]
# [4] = target: T4, TRPV1 QM (S512F, M547L, T550L, E570Q) (Rattus norvegicus, UniProt O35433, E570Q/M547L/S512F/T550L); assay: Two-electrode voltage-clamp in Xenopus oocytes, TRPV1 QM; assay type: cell-based; conditions: 100 nM RTx
# T4 construct: expressed in transfected cells; host or cells: Xenopus oocytes (cRNA injection)
# T4 sequence (O35433 whole entry S512F/M547L/T550L/E570Q): as the sequence (O35433 whole entry Y511A) above, with A511Y, S512F, M547L, T550L, E570Q counted along it
# From the text: as §3, with “right). […]” for “right).”
# [5] = target: T5, TRPV1 triple mutant that left S512 intact (Rattus norvegicus, UniProt O35433, E570Q/M547L/T550L); assay: Two-electrode voltage-clamp in Xenopus oocytes, TRPV1 triple mutant with S512 intact; assay type: cell-based; conditions: 100 nM RTx
# T5 construct: expressed in transfected cells; host or cells: Xenopus oocytes (cRNA injection)
# T5 sequence (O35433 whole entry M547L/T550L/E570Q): as the sequence (O35433 whole entry Y511A) above, with A511Y, M547L, T550L, E570Q counted along it
# From the text: as §3, with “right). […]” for “right).”
# [6] = target: T6, WT TRPV2 (Rattus norvegicus, UniProt Q9WUD2); assay: Two-electrode voltage-clamp in Xenopus oocytes, WT TRPV2; assay type: cell-based; conditions: 100 nM RTx
# T6 construct: expressed in transfected cells; host or cells: Xenopus oocytes (cRNA injection, pGEM-HE)
# T6 sequence (Q9WUD2 whole entry): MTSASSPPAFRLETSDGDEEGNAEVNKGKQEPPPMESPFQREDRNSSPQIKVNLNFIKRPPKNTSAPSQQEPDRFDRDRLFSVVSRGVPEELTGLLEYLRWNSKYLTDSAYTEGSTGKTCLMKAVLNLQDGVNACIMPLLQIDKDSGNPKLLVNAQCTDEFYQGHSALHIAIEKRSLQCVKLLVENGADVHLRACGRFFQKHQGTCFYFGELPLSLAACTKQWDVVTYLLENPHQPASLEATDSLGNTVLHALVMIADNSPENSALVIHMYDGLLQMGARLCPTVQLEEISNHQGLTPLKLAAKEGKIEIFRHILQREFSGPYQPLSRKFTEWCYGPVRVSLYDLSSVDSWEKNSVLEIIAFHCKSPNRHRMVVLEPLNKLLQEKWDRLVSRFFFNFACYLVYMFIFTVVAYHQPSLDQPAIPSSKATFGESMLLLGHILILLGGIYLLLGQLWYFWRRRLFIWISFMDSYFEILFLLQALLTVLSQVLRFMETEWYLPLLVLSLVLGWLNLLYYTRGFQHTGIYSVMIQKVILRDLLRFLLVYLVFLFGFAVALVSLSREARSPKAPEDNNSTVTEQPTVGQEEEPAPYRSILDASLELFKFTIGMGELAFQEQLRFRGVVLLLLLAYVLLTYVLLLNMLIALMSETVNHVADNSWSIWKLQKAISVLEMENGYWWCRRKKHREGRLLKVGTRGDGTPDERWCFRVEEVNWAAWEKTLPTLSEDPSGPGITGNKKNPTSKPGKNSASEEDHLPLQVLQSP
# From the text: as §3, with “right). […]” for “right).”
# [7] = target: T7, TRPV2 triple mutant that retained F472 (Rattus norvegicus, UniProt Q9WUD2, L507M/L510T/Q530E); assay: Two-electrode voltage-clamp in Xenopus oocytes, TRPV2 triple mutant retaining F472; assay type: cell-based; conditions: 100 nM RTx, +60 mV, normalized to 4 mM 2-APB
# T7 construct: expressed in transfected cells; host or cells: Xenopus oocytes (cRNA injection)
# T7 sequence (Q9WUD2 whole entry L507M/L510T/Q530E): as the sequence (Q9WUD2 whole entry) above, with L507M, L510T, Q530E counted along it
# From the text: as §3, with “right). […]” for “right).”
# [8] = target: T8, TRPV2 F472S/Q530E (Rattus norvegicus, UniProt Q9WUD2, F472S/Q530E); assay: Two-electrode voltage-clamp in Xenopus oocytes, TRPV2 F472S/Q530E; assay type: cell-based; conditions: 100 nM RTx
# T8 construct: expressed in transfected cells; host or cells: Xenopus oocytes (cRNA injection)
# T8 sequence (Q9WUD2 whole entry F472S/Q530E): as the sequence (Q9WUD2 whole entry) above, with F472S, Q530E counted along it
# [9] = read-out: Kd of 3H-RTx binding (Hill fit)
# T1 sequence (O35433 whole entry): as the sequence (O35433 whole entry Y511A) above, with A511Y counted along it
compound,measurement,setting,value
"C=C(C)[C@]12C[C@@H](C)[C@@]34O[C@](Cc5ccccc5)(O[C@@H]1[C@@H]3C=C(COC(=O)Cc1ccc(O)c(OC)c1)C[C@]1(O)C(=O)C(C)=C[C@@H]41)O2 [RTx, resiniferatoxin]",Hill slope (nH),[1],0.6
same,Kd,[1]; [9],30 nM
same,Hill slope (nH),[2],1.1
same,Kd,[2]; [9],> 238 nM
same,channel activation by RTx,[3],effectively irreversible activation
same,channel activation by RTx,[4],completely lost sensitivity
same,channel activation by RTx,[5],retained sensitivity
same,channel activation by RTx,[6],completely insensitive
same,channel activation by RTx,[7],insensitive to RTx
same,channel activation by RTx,[8],unresponsive
